Consider 1 compound from US6777445B2, “Fullerene pharmaceutical compositions for preventing or treating disorders” (priority 2000, dated 2004).

This test relates to E. coli. Put plainly: E. coli-induced meningitis death, C60(C3) given immediately before E. coli (Test 1). It counts as in vivo, B6 mice. As to conditions: 6 mg/kg i.p. C60(C3), again at 24 and 48 hours. How it is done:
E. coli ATCC 10536 was cultured in Luria-Bertain (LB) broth (1% NaCl, 1% tryptone, 0.5% yeast extract) for 12 hours and was subcultured in fresh medium for another 3 h. The concentration of E. coli was determined with a spectrophotometer (Beckman Instrument, Somerset, N.J.), with an optical density at 600 nm of 1 equal to […] (Wang, S. D., et al., J. Immunol. 152:5014-5021). For the induction of meningitis, groups of three to four mice were given intracerebral injections directly into the temporal area of a volume of 5×10^5 E. coli cells diluted in saline. The 100% lethal dose (LD100) by intracerebral injection in B6 mice is 5×10^5 E. coli cells. The animals were observed every 12 hours for a total of 6 days. In some experiments, the brains were aseptically removed and were homogenized with 3% gelatin (Difco Laboratories, Detroit, Mich.) in PBS. The samples were serial diluted, poured in agar plates, and incubated at 37° C. overnight. The number of colony forming units (CFU) of E. coli was quantitated and was expressed as the mean±standard deviation per mouse. […] The growth curve of E. coli was determined in LB broth to evaluate the direct antimicrobial activity of C60(C3).
Groups of 10 B6 mice were inoculated intracerebrally with 5×10^5 E. coli per mouse. […] The mice were monitored for death every 12 hours for 6 days.

As for `C[C@@H]1C[C@H]2[C@@H]3CCC4=CC(=O)C=C[C@]4(C)[C@@]3(F)[C@@H](O)C[C@]2(C)[C@@]1(O)C(=O)CO` [dexamethasone], the “mice protected from E. coli-induced death” value was found to be 20%.
